From patent US10543189B2, “2-acetylnaphtho[2,3-b]furan -4,9-dione for use on treating cancer” (Boston Biomedical, Inc., priority 2013, dated 2020)

Assay: Phase 1 extension study of higher strength capsule (DP2A): adverse events
Format: in vivo
Details: AE possibly related to BBI608
Excerpt: However, with the higher strength capsules, we observed worsening gastrointestinal adverse effects including nausea, vomiting, and diarrhea in patients.
Additional studies were run using an oral formulation of the Compound of the Invention, specifically a higher strength capsule formulation (DP2A). As described herein, the Compound of the Invention blocks cancer stem cell (CSC) self-renewal and induces cell death in CSC as well as non-stem cancer cells by inhibiting Stat3, β-catenin, and Nanog pathways, and has shown potent anti-tumor and anti-metastatic activities pre-clinically. […] The studies described herein were designed as a phase 1 extension study to evaluate a formulation designed for pivotal trials to determine pharmacokinetics (PK) in patients with advanced cancer.
On Day 1, patients received a single 500 mg dose of an oral administration formulation of the Compound of the Invention (DP1). On Day 4 and Day 8, a higher strength capsule designed for pivotal trials (DP2A) was given with fasting then fed conditions. DP2A was then administered daily until disease progression or unacceptable toxicity. Endpoints were safety, PK and preliminary anticancer activity.

CC(=O)c1cc2c(o1)C(=O)c1ccccc1C2=O [Compound 1, 2-acetylnaphtho[2,3-b]furan-4,9-dione]
5: Abdominal cramps/pain, Grade 1 or 2, # Subjects (q 12 h dosing (N = 11))
36.4%: Fatigue/weakness, Grade 1 or 2, % (q 12 h dosing (N = 11))
5.9%: hypophosphatemia, Grade 1 or 2, % (q 4 h dosing (N = 17)) | hypophosphatemia, Grade 3, % (q 4 h dosing (N = 17))
18.2%: Flatulence, Grade 1 or 2, % (q 12 h dosing (N = 11)) | Nausea, Grade 1 or 2, % (q 12 h dosing (N = 11)) | Xerostomia, Grade 1 or 2, % (q 12 h dosing (N = 11))
23.5%: Xerostomia, Grade 1 or 2, % (q 4 h dosing (N = 17))
63.6%: Diarrhea, Grade 1 or 2, % (q 12 h dosing (N = 11))
4: Xerostomia, Grade 1 or 2, # Subjects (q 4 h dosing (N = 17)) | Fatigue/weakness, Grade 1 or 2, # Subjects (q 12 h dosing (N = 11))
0: Weight loss, Grade 3, # Subjects (q 4 h dosing (N = 17)) | Xerostomia, Grade 3, # Subjects (q 4 h dosing (N = 17)) | Abdominal cramps/pain, Grade 3, # Subjects (q 12 h dosing (N = 11)) | Anorexia, Grade 3, # Subjects (q 12 h dosing (N = 11)) | Bloated abdomen, Grade 1 or 2, # Subjects (q 12 h dosing (N = 11)) | Bloated abdomen, Grade 3, # Subjects (q 12 h dosing (N = 11)) | Dehydration, Grade 1 or 2, # Subjects (q 12 h dosing (N = 11)) | Dehydration, Grade 3, # Subjects (q 12 h dosing (N = 11)) | Depression, Grade 3, # Subjects (q 12 h dosing (N = 11)) | Diarrhea, Grade 3, # Subjects (q 12 h dosing (N = 11)) | Dysgusia, Grade 1 or 2, # Subjects (q 12 h dosing (N = 11)) | Dysgusia, Grade 3, # Subjects (q 12 h dosing (N = 11)) | Flatulence, Grade 3, # Subjects (q 12 h dosing (N = 11)) | Nausea, Grade 3, # Subjects (q 12 h dosing (N = 11)) | Rectal/Anal Burning, Grade 3, # Subjects (q 12 h dosing (N = 11)) | Reflux (also heartburn), Grade 1 or 2, # Subjects (q 12 h dosing (N = 11)) | Reflux (also heartburn), Grade 3, # Subjects (q 12 h dosing (N = 11)) | Urine Color Change, Grade 1 or 2, # Subjects (q 12 h dosing (N = 11)) | Urine Color Change, Grade 3, # Subjects (q 12 h dosing (N = 11)) | Vomiting, Grade 3, # Subjects (q 12 h dosing (N = 11)) | Weight loss, Grade 1 or 2, # Subjects (q 12 h dosing (N = 11)) | Weight loss, Grade 3, # Subjects (q 12 h dosing (N = 11)) | Xerostomia, Grade 3, # Subjects (q 12 h dosing (N = 11)) | hypophosphatemia, Grade 1 or 2, # Subjects (q 12 h dosing (N = 11)) | hypophosphatemia, Grade 3, # Subjects (q 12 h dosing (N = 11))
45.5%: Abdominal cramps/pain, Grade 1 or 2, % (q 12 h dosing (N = 11))
2: Flatulence, Grade 1 or 2, # Subjects (q 12 h dosing (N = 11)) | Nausea, Grade 1 or 2, # Subjects (q 12 h dosing (N = 11)) | Xerostomia, Grade 1 or 2, # Subjects (q 12 h dosing (N = 11))
47.1%: Weight loss, Grade 1 or 2, % (q 4 h dosing (N = 17))
1: hypophosphatemia, Grade 1 or 2, # Subjects (q 4 h dosing (N = 17)) | hypophosphatemia, Grade 3, # Subjects (q 4 h dosing (N = 17)) | Anorexia, Grade 1 or 2, # Subjects (q 12 h dosing (N = 11)) | Depression, Grade 1 or 2, # Subjects (q 12 h dosing (N = 11)) | Fatigue/weakness, Grade 3, # Subjects (q 12 h dosing (N = 11)) | Rectal/Anal Burning, Grade 1 or 2, # Subjects (q 12 h dosing (N = 11)) | Vomiting, Grade 1 or 2, # Subjects (q 12 h dosing (N = 11))
7: Diarrhea, Grade 1 or 2, # Subjects (q 12 h dosing (N = 11))
9.1%: Anorexia, Grade 1 or 2, % (q 12 h dosing (N = 11)) | Depression, Grade 1 or 2, % (q 12 h dosing (N = 11)) | Fatigue/weakness, Grade 3, % (q 12 h dosing (N = 11)) | Rectal/Anal Burning, Grade 1 or 2, % (q 12 h dosing (N = 11)) | Vomiting, Grade 1 or 2, % (q 12 h dosing (N = 11))
0.0%: Weight loss, Grade 3, % (q 4 h dosing (N = 17)) | Xerostomia, Grade 3, % (q 4 h dosing (N = 17)) | Abdominal cramps/pain, Grade 3, % (q 12 h dosing (N = 11)) | Anorexia, Grade 3, % (q 12 h dosing (N = 11)) | Bloated abdomen, Grade 1 or 2, % (q 12 h dosing (N = 11)) | Bloated abdomen, Grade 3, % (q 12 h dosing (N = 11)) | Dehydration, Grade 1 or 2, % (q 12 h dosing (N = 11)) | Dehydration, Grade 3, % (q 12 h dosing (N = 11)) | Depression, Grade 3, % (q 12 h dosing (N = 11)) | Diarrhea, Grade 3, % (q 12 h dosing (N = 11)) | Dysgusia, Grade 1 or 2, % (q 12 h dosing (N = 11)) | Dysgusia, Grade 3, % (q 12 h dosing (N = 11)) | Flatulence, Grade 3, % (q 12 h dosing (N = 11)) | Nausea, Grade 3, % (q 12 h dosing (N = 11)) | Rectal/Anal Burning, Grade 3, % (q 12 h dosing (N = 11)) | Reflux (also heartburn), Grade 1 or 2, % (q 12 h dosing (N = 11)) | Reflux (also heartburn), Grade 3, % (q 12 h dosing (N = 11)) | Urine Color Change, Grade 1 or 2, % (q 12 h dosing (N = 11)) | Urine Color Change, Grade 3, % (q 12 h dosing (N = 11)) | Vomiting, Grade 3, % (q 12 h dosing (N = 11)) | Weight loss, Grade 1 or 2, % (q 12 h dosing (N = 11)) | Weight loss, Grade 3, % (q 12 h dosing (N = 11)) | Xerostomia, Grade 3, % (q 12 h dosing (N = 11)) | hypophosphatemia, Grade 1 or 2, % (q 12 h dosing (N = 11)) | hypophosphatemia, Grade 3, % (q 12 h dosing (N = 11))
